Experimental data: PMC10175687 (Frontiers in Pharmacology, 2023)
Where two headings read alike, the source gives them in different places.

Experiments:
[1] = design: method as in 2 sources, one per row (each row's own in cited_ref): ref Rowland, 1990; Rybak, 2006; Cavalcanti et al., 2010 ||| ref EMA., 2022; settings: cited from earlier work; for half-life: ref Rowland, 1990, Rybak, 2006, Cavalcanti et al., 2010
[2] = design: method as in Rowland, 1990; Rybak, 2006; Cavalcanti et al., 2010; settings: ref Rowland, 1990, Rybak, 2006, Cavalcanti et al., 2010, cited from earlier work
[3] = design: species or system human; settings: in vivo
Protocol: This was a prospective, open-label PPK study conducted in the ICU department of Peking University First Hospital. […] Pregnant and lactating patients, patients with special sites (endocardium, bone, joints, etc.) infections, or those who received any special treatment that may affect drug elimination, such as renal replacement therapy, were excluded.
The infusion duration was 30–60 min. […] Additionally, in 1/3 patients, 2 mL more blood sample was collected immediately after the 5th infusion; in the other 1/3 patients, 2 mL more blood sample was collected 1 h after the 5th dose, and in the remaining 1/3 patients, 2 mL more concentration sample was taken 1 h before the 6th dose. All blood samples were collected in blood collection tubes anticoagulated by ethylene diamine tetra acetic acid (EDTA) for concentration determination.
Blood samples were centrifuged within 12 h to obtain plasma. Then, 0.4 mL plasma samples were added with 0.05 mL internal standard solution (piperacillin sodium 0.15 mg/mL). Consequently, 0.6 mL acetonitrile was added, and the sample was vigorously shaken for 1 min and centrifuged at 12,000 r/min for 5 min. Then, 0.9 mL of the supernatant was transferred to a centrifuge tube, and 0.4 mL of dichloromethane was added. The solution was vigorously shaken for 1 min and centrifuged at 12,000 r/min for 5 min. The supernatant was then transferred into a vial for detection. HPLC detection conditions were as follows: Waters Symmetry C18 column (250 × 4.6 mm, 5 μm); mobile phase: 0.01 mol/L NaH2PO4 (pH = 3.3)-acetonitrile (75:25), isocratic elution; detection wavelength: 240 nm; flow rate: 1.0 mL/min; injection volume: 0.020 mL; column temperature: 35 °C ([Dong et al., 2011]). […] The above analytical method has passed the methodological verification. […] In terms of sensitivity, the signal-to-noise ratio (S/N) of the LOQ was >10. The relative standard deviations (RSDs) of the intra-day and inter-day precision of simulated plasma samples with high, medium and low concentrations were all less than 10%, and the intra-day and inter-day accuracies were 91.01%–101.13% and 92.98%–98.99%, respectively. […] The stability of simulated plasma samples with high, medium and low concentrations was good after being placed at room temperature for 4 h, frozen and thawed 3 times and stored at −80°C for 60 days, respectively, with the RSDs of tested samples all less than 10%.
The model was established in a stepwise manner. In the basic model screening process, one-, two- and three-compartment models with additive, proportional and mixed error were tested respectively, and the basic model was selected by the objective function value (OFV) and visual diagnostic plots ([Gao et al., 2020]). The model parameters were assumed to follow a log-normal distribution, and the inter-individual variability for each structural parameter was modeled using the following equation: Pi=PTV×Exp ηi (1) where P i represents parameters for the i th individual, P TV are the typical values of the parameters, and η i are random variables with zero mean and variance of ω^2.
Demographic and clinical characteristics that were considered plausible for affecting teicoplanin PK were tested as covariates, including sex, age, height, weight, BMI, ALT, AST, TBIL, DBIL, TP, ALB, WBC, Scr, GFR, and BUN. Individual PK estimates obtained from the selected structural model were firstly plotted against covariate values to assess relationships ([Byrne et al., 2017]). When a relationship between the covariate and the PK parameter was observed, the covariate was tested for inclusion into the PPK model. […]

Row | Compound | half-life ([1]; vancomycin, adults with normal renal function) [h] | plasma protein binding rate ([2]; vancomycin) | Q, Estimate (RSE%) [3] | Q, bootstrap median (95% PI) [3] | V1, Estimate (RSE%) [3] | V1, bootstrap median (95% PI) [3] | V2, Estimate (RSE%) [3] | V2, bootstrap median (95% PI) [3] | θCL_GFR, Estimate (RSE%) [3] | θCL_GFR, bootstrap median (95% PI) [3] | CL, Estimate (RSE%) ([3]; iv) | renal clearance ([1]; ref EMA., 2022) [mL/min/kg] | total clearance ([1]; ref EMA., 2022) [mL/min/kg] | half-life ([1]; teicoplanin) [h] | dose administered recovered in feces (via bile excretion) ([1]; within 8 days after administration, ref EMA., 2022) [%] | unchanged teicoplanin excreted by the urinary route ([1]; within 16 days, ref EMA., 2022) [%] | plasma protein binding rate ([2]; teicoplanin)
1 | CN[C@H](CC(C)C)C(=O)N[C@H]1C(=O)N[C@@H](CC(N)=O)C(=O)N[C@H]2C(=O)N[C@H]3C(=O)N[C@H](C(=O)N[C@H](C(=O)O)c4cc(O)cc(O)c4-c4cc3ccc4O)[C@H](O)c3ccc(c(Cl)c3)Oc3cc2cc(c3O[C@@H]2O[C@H](CO)[C@@H](O)[C@H](O)[C@H]2O[C@H]2C[C@](C)(N)[C@H](O)[C@H](C)O2)Oc2ccc(cc2Cl)[C@H]1O [vancomycin] | 6 to 12 | 30%–55% |  |  |  |  |  |  |  |  |  |  |  |  |  |  | 
2 | teicoplanin |  |  | 3.12 (10.9) L/h | 3.14 (2.62–3.90) L/h | 20.1 (12.9) L | 19.8 (16.1–26.2) L | 101 (12.7) L | 98.2 (77.5–122.2) L | 0.437 (23.8) | 0.441 (0.234–0.740) | 1.03 (16.6) L/h | 0.13 to 0.2 | 0.167 to 0.233 | 100 to 170 | 2.7 | 80 | about 90%
